Reference: patent publication US20100041089A1, “IMPROVED METHOD FOR DETECTING CHEMICAL […]” (priority 2006, published 2010)

Tested on: yeast genes (expressed mRNA)
Assay: DNA chip measurement of expressed mRNA of yeast genes after culture with a toxic chemical substance
Format: cell-based, Saccharomyces cerevisiae S288C
Conditions: for level of expressed mRNA in the presence of chemical substance / level in the absence of chemical substance: cultured two hours with the chemical substance; for The level of expressed mRNA in the presence of chemical substance/The level of expressed mRNA in the absence of chemical substance: cultured two hours with substance
Experimental: Yeast (Saccharomyces cerevisiae S288C (a SUC2mal mel gap2 CUP1)) were cultured at 25° C. on YPD medium (yeast extract 1%, polypeptone 2%, glucose 2%). One of toxic chemical substances was added to the cell at logarithmic growth phase, and the cell was further cultured for two hours. Cell was cultured without any chemical substance in the same condition, and was used as a control. Concentrations of the chemical substances were defined to inhibit the growth of the yeast but not lead to death.
After the completion of cultivation, the culture was centrifuged to collect the cells. To the cells, sodium acetate buffer (50 mM sodium acetate, 10 mM EDTA, 1% SDS) was added, and the mixture was shaken at 65° C. for five minutes, followed by returning to room temperature, and obtaining the supernatant, which procedure was repeated two times. To the supernatant, ½ amount of a solution of phenol/chloroform (1:1) was added, and the mixture was centrifuged to give a supernatant, an equal amount of chloroform was added, and the mixture was centrifuged to give a supernatant. To the supernatant, an equal amount of isopropanol containing 0.3 M sodium acetate was added, and the mixture was allowed to stand at room temperature for 30 minutes, after which the mixture was centrifuged to give sediment of the whole RNAs. Seventy % ethanol was added to the sediment, and the mixture was again centrifuged to give sediment, which was then dried and dissolved in water. mRNA was isolated from the whole RNAs as followings. In view of the fact that a poly A chain is attached to the 3′ terminus of mRNA, a polynucleotide having a poly T structure which was immobilized on the surface of latex beads was used to trap the mRNA, and then the mRNA was washed and eluted with spine column (Oligotex-dT30<Super>mRNA Purification Kit, Takara). Reverse transcription of the mRNA was conducted with a reverse transcriptase (Super Script II Reverse Transcriptase; catalogue No. 18064-014, GibcoBRL) using fluorescence-labeled nucleotides to give cDNAs that were introduced with Cy3-dUTP or Cy5-dUTP during the reverse transcription.
The labeled cDNAs were dissolved in TE buffer (10 mM Tris-HCl/1 mM EDTA, pH 8.0), and the solution was dropped on the DNA chip containing the whole genes of yeast (DNA Chip Research Inc. Japan) so that the cDNAs were hybridized on the DNA chip at 65° C. for over 12 hours. The fluoresces intensity of the DNA chip was read with a scanner, and the ratio relative to the fluorescence intensity resulting from the absence of chemical substance was estimated as the following, which is shown in Tables 1 to 9.
In the Tables, “Intensity” indicated in the rightmost column is a value of the level of expressed mRNA of each gene in control cells as divided by the average level of the expressions of the whole genes. A gene of which mRNA level is lower in control, and is higher in cases of addition of chemical substance, is especially useful in the detection of toxic substances.
Here, when a ratio of an amount of mRNA expressed in the presence of the chemical substance to an amount of mRNA expressed in the absence of the chemical substance is two or more, then it is considered significant.

CCCCCCCCCCCCc1ccc(S(=O)(=O)[O-])cc1.[Na+] [(17), Sodium dodecylbenzosulfonate]
level of expressed mRNA in the presence of chemical substance / level in the absence of chemical substance (yeast gene YJL097W): 1.2
The level of expressed mRNA in the presence of chemical substance/The level of expressed mRNA in the absence of chemical substance (yeast gene YJL151C): 3.5
The level of expressed mRNA in the presence of chemical substance/The level of expressed mRNA in the absence of chemical substance (yeast gene YJL152W): 2.5
The level of expressed mRNA in the presence of chemical substance/The level of expressed mRNA in the absence of chemical substance (yeast gene YJL161W): 1.9
The level of expressed mRNA in the presence of chemical substance/The level of expressed mRNA in the absence of chemical substance (yeast gene YJL171C): 3.6
The level of expressed mRNA in the presence of chemical substance/The level of expressed mRNA in the absence of chemical substance (yeast gene YJR008W): 1.5
level of expressed mRNA in the presence of chemical substance / level in the absence of chemical substance (yeast gene YJR030C): 0.7
The level of expressed mRNA in the presence of chemical substance/The level of expressed mRNA in the absence of chemical substance (yeast gene YJR054W): 0.9
level of expressed mRNA in the presence of chemical substance / level in the absence of chemical substance (yeast gene YKL051W): 1.5
The level of expressed mRNA in the presence of chemical substance/The level of expressed mRNA in the absence of chemical substance (yeast gene YKL071W): 1.0
The level of expressed mRNA in the presence of chemical substance/The level of expressed mRNA in the absence of chemical substance (yeast gene YKL086W): 0.9
level of expressed mRNA in the presence of chemical substance / level in the absence of chemical substance (yeast gene YKL097C): 1.1
level of expressed mRNA in the presence of chemical substance / level in the absence of chemical substance (yeast gene YKL100C): 0.7
The level of expressed mRNA in the presence of chemical substance/The level of expressed mRNA in the absence of chemical substance (yeast gene YKL151C): 1.4
The level of expressed mRNA in the presence of chemical substance/The level of expressed mRNA in the absence of chemical substance (yeast gene YKL153W): 0.9
The level of expressed mRNA in the presence of chemical substance/The level of expressed mRNA in the absence of chemical substance (yeast gene YKL195W): 1.4
level of expressed mRNA in the presence of chemical substance / level in the absence of chemical substance (yeast gene YKR040C): 0.7
The level of expressed mRNA in the presence of chemical substance/The level of expressed mRNA in the absence of chemical substance (yeast gene YKR091W): 1.6
The level of expressed mRNA in the presence of chemical substance/The level of expressed mRNA in the absence of chemical substance (yeast gene YLR054C): 1.6
The level of expressed mRNA in the presence of chemical substance/The level of expressed mRNA in the absence of chemical substance (yeast gene YLR149C): 1.3
The level of expressed mRNA in the presence of chemical substance/The level of expressed mRNA in the absence of chemical substance (yeast gene YLR152C): 1.5
The level of expressed mRNA in the presence of chemical substance/The level of expressed mRNA in the absence of chemical substance (yeast gene YLR194C): 1.0
level of expressed mRNA in the presence of chemical substance / level in the absence of chemical substance (yeast gene YLR226W): 1.1
The level of expressed mRNA in the presence of chemical substance/The level of expressed mRNA in the absence of chemical substance (yeast gene YLR324W): 1.2
level of expressed mRNA in the presence of chemical substance / level in the absence of chemical substance (yeast gene YLR338W): 0.8
The level of expressed mRNA in the presence of chemical substance/The level of expressed mRNA in the absence of chemical substance (yeast gene YLR350W): 1.6
The level of expressed mRNA in the presence of chemical substance/The level of expressed mRNA in the absence of chemical substance (yeast gene YLR387C): 1.0
level of expressed mRNA in the presence of chemical substance / level in the absence of chemical substance (yeast gene YLR392C): 0.8
level of expressed mRNA in the presence of chemical substance / level in the absence of chemical substance (yeast gene YLR415C): 0.8
level of expressed mRNA in the presence of chemical substance / level in the absence of chemical substance (yeast gene YLR427W): 1.0
The level of expressed mRNA in the presence of chemical substance/The level of expressed mRNA in the absence of chemical substance (yeast gene YLR460C): 1.0
level of expressed mRNA in the presence of chemical substance / level in the absence of chemical substance (yeast gene YML013W): 1.1
level of expressed mRNA in the presence of chemical substance / level in the absence of chemical substance (yeast gene YML029W): 1.2
level of expressed mRNA in the presence of chemical substance / level in the absence of chemical substance (yeast gene YML041C): 1.3
level of expressed mRNA in the presence of chemical substance / level in the absence of chemical substance (yeast gene YML079W): 1.4
The level of expressed mRNA in the presence of chemical substance/The level of expressed mRNA in the absence of chemical substance (yeast gene YML117W): 1.1
The level of expressed mRNA in the presence of chemical substance/The level of expressed mRNA in the absence of chemical substance (yeast gene YMR009W): 2.7
The level of expressed mRNA in the presence of chemical substance/The level of expressed mRNA in the absence of chemical substance (yeast gene YMR067C): 1.0
level of expressed mRNA in the presence of chemical substance / level in the absence of chemical substance (yeast gene YMR068W): 1.3
level of expressed mRNA in the presence of chemical substance / level in the absence of chemical substance (yeast gene YMR071C): 1.2
The level of expressed mRNA in the presence of chemical substance/The level of expressed mRNA in the absence of chemical substance (yeast gene YMR090W): 1.8
The level of expressed mRNA in the presence of chemical substance/The level of expressed mRNA in the absence of chemical substance (yeast gene YMR095C): 1.0
The level of expressed mRNA in the presence of chemical substance/The level of expressed mRNA in the absence of chemical substance (yeast gene YMR097C): 1.4
The level of expressed mRNA in the presence of chemical substance/The level of expressed mRNA in the absence of chemical substance (yeast gene YMR102C): 2.4
The level of expressed mRNA in the presence of chemical substance/The level of expressed mRNA in the absence of chemical substance (yeast gene YMR107W): 1.3
level of expressed mRNA in the presence of chemical substance / level in the absence of chemical substance (yeast gene YMR160W): 0.9
The level of expressed mRNA in the presence of chemical substance/The level of expressed mRNA in the absence of chemical substance (yeast gene YMR180C): 1.4
The level of expressed mRNA in the presence of chemical substance/The level of expressed mRNA in the absence of chemical substance (yeast gene YMR184W): 1.4
The level of expressed mRNA in the presence of chemical substance/The level of expressed mRNA in the absence of chemical substance (yeast gene YMR191W): 1.2
The level of expressed mRNA in the presence of chemical substance/The level of expressed mRNA in the absence of chemical substance (yeast gene YMR295C): 2.1
The level of expressed mRNA in the presence of chemical substance/The level of expressed mRNA in the absence of chemical substance (yeast gene YMR316W): 6.9
level of expressed mRNA in the presence of chemical substance / level in the absence of chemical substance (yeast gene YNL026W): 1.0
The level of expressed mRNA in the presence of chemical substance/The level of expressed mRNA in the absence of chemical substance (yeast gene YNL044W): 3.1
